In patent publication US6403299B1, “DEAH-box proteins” (Aventis Research & Technologies GmbH & Co. KG, priority 1995, dated 2002):
Read-outs that look alike come from different tables or passages of the source.

How the values were obtained:
Type in all cases: cell-based, mouse
[1] = tested on: A20.2J cells; experiment: Proliferation test 2 (3H-thymidine incorporation), A20.2J cells
Protocol: (§1) 4×10^3 cells were pipetted into a volume of 100 μl of Iscove medium in 96-well round-bottom microtiter plates (Nunc). Test substances were applied in twice the concentration starting from the desired test concentration and 100 μl of this solution was pipetted into the cells. The plates were incubated for 48 hours at 37° C. and 10% CO2. The proliferation was determined by radiolabeling the DNA of dividing cells. To do this, after the incubation time 25 μl of ^3H-thymidine (10 μCi/ml; specific activity 29 Ci/mmol; Amersham) was added to each well and the mixture was incubated for a further 16 hours. To evaluate the test, the plates were harvested on glass fiber filters (Pharmacia) by means of a cell harvester (Skatron), unincorporated ^3H-thymidine being collected in separate waste flasks, and only cellular, DNA-bound radioactivity being measured. The filters were heat-sealed in plastic bags and after addition of 10 ml of scintillator (Pharmacia) sealed in counting cassettes for measurement. Measurement was carried out in a beta-counter (beta-plate system 1206 from Wallac). As indicated under Test 1, the alteration in proliferation of the test substances was calculated against the respective positive controls.
(§2) Antiproliferative substances known from the literature were tested at different concentrations (as described in proliferation test 2) for their antiproliferative properties on A20R cells and A20.2J.
(§3) The function of MDR proteins as secretory pumps can be inhibited by calcium channel blockers, which leads to an accumulation of the substance in the cell. Calcium channel blockers known from the literature and also MDR-associated substances were therefore added to both cell lines in order to check whether the resistant line overexpressed MDR proteins.
(§4) The same test mixture was chosen in order to check whether A77 1726 is an MDR-transported molecule. Numbers are % inhibition of proliferation.

[2] = tested on: A20R cells; experiment: Proliferation test 1 (cell counting, Eosin staining), A20R cells
Protocol: Every 2nd or 3rd day, the cells were passaged in fresh medium to which the same concentration of A77 1726 was added. After culturing for 5 days, growth of the cells and a low dying-off rate (maximum 30% dead cells) was detectable, so the concentration of A77 1726 was increased stepwise. If the proliferation of the cells stagnated, the concentration of the last passage was used. […] 5×10^5 cells were incubated in 5 ml of Iscove medium in 6-well plates (Greiner) for 48 hours at 37° C. and 10% CO2. One well was set up as a positive reference value: for […]: cells in Iscove medium+100 μM A77 1726 Test substances in various concentrations were pipetted into the cells in the remaining wells. After the incubation time, the cells were resuspended in the well, and 100 μl of cell suspension were taken and diluted in 1% strength Eosin solution (1 g of Eosin yellowish from Riedel de Häen dissolved in 100 ml of sterile isotonic saline solution). The cells were counted in a Neubauer counting chamber and the fraction of dead cells (stained by Eosin) determined. The substance-induced alteration of proliferation was calculated relative to the respective positive control.

[3] = tested on: A20.2J cells; experiment: Proliferation test 1 (cell counting, Eosin staining), A20.2J cells
Protocol: A20.2J is a subline of the mouse B-cell lymphoma A20 (ATCC TIB-208) and described as a fusion line in the ATCC for the cell line LS 102.9 (ATCC HB-97). […] The cells were easy to culture as a nonadherent-growing cell line. 5×10^5 cells were incubated in 5 ml of Iscove medium in 6-well plates (Greiner) for 48 hours at 37° C. and 10% CO2. One well was set up as a positive reference value: for A20.2J: cells in Iscove medium Test substances in various concentrations were pipetted into the cells in the remaining wells. After the incubation time, the cells were resuspended in the well, and 100 μl of cell suspension were taken and diluted in 1% strength Eosin solution (1 g of Eosin yellowish from Riedel de Häen dissolved in 100 ml of sterile isotonic saline solution). The cells were counted in a Neubauer counting chamber and the fraction of dead cells (stained by Eosin) determined. The substance-induced alteration of proliferation was calculated relative to the respective positive control.

[4] = tested on: A20R cells; experiment: Proliferation test 2 (3H-thymidine incorporation), A20R cells
Protocol: as §1, §2, §3, §4

Question: `C/C(O)=C(\C#N)C(=O)Nc1ccc(C(F)(F)F)cc1` [A77 1726] was tested. Which “% inhibition of proliferation” value ([1]; A20.2J + 1.6 μM A77 1726, verapamil 0 nM) did it give?
Answer: The value was 16.4%.

Question: What about the IC50 ([2]; Mus musculus, proliferation test 1, A77 1726 analogs) of the same compound?
Answer: The IC50 was 130 µM.

Question: And the IC50 ([3]; Mus musculus, A20/2J, proliferation test 1, A77 1726 analogs, read-out: IC50 value of A20.2J)?
Answer: Its IC50 is 2 to 3 µM.

Question: What about the IC50 ([3]; Mus musculus, read-out: 50% inhibition of the proliferation of the cells, A20.2J) of the same compound?
Answer: The IC50 was 2 µM.

Question: And the “% inhibition of proliferation” value ([4]; A20R + 62.5 μM A77 1726, verapamil 0 nM)?
Answer: Its value is 10.3%.

Question: What about the “transport by MDR proteins” value ([4]; A20.2J and A20R cells, with verapamil 0-400 nM) of the same compound?
Answer: Its value is “not transported by MDR proteins”.

Question: `Cc1c(-c2ccc(-c3ccccc3F)cc2)nc2ccc(F)cc2c1C(=O)[O-].[Na+]` [Brequinar Na^+ salt, brequinar] was tested. Which “cross-resistance of A20R cells (growth behavior) compared with A20.2J” value [2] did it give?
Answer: The value was “cross-resistance”.

Question: And the IC50 ([2]; proliferation test 1, brequinar)?
Answer: Its IC50 is 50 to 75 µM.

Question: What about the IC50 ([3]; proliferation test 1, brequinar, read-out: IC50 value of A20.2J) of the same compound?
Answer: The IC50 was 0.2 µM.

Question: What does the source list for `N.N.[Cl][Pt][Cl]` [Cisplatin]?
Answer: % inhibition of A20.2J ([1]; 10 μM): 44.7%; % inhibition of A20R ([4]; 10 μM): 91.1%

Question: With `CN(Cc1cnc2nc(N)nc(N)c2n1)c1ccc(C(=O)N[C@@H](CCC(=O)O)C(=O)O)cc1` [Methotrexate] as the compound, how does the inhibition at 0.15 µM ([1]; Mus musculus, A20/2J; 0.15 μM) read?
Answer: The inhibition at 0.15 µM was 75.9%.

Question: What about the inhibition at 0.15 µM ([4]; Mus musculus; 0.15 μM) of the same compound?
Answer: The inhibition at 0.15 µM was 65.2%.

Question: With `COc1c(C)c2c(c(O)c1C/C=C(\C)CCC(=O)O)C(=O)OC2` [Mycophenolic acid] as the compound, how does the inhibition at 0.15 µM ([1]; Mus musculus, A20/2J; 0.15 μM) read?
Answer: Its inhibition at 0.15 µM is 89.8%.

Question: And the inhibition at 0.15 µM ([4]; Mus musculus; 0.15 μM)?
Answer: The inhibition at 0.15 µM was 76.8%.

Question: How did the inhibition at 0.3 µM ([1]; Mus musculus, A20/2J, read-out: % inhibition of proliferation) turn out when `COc1cccc2c1C(=O)c1c(O)c3c(c(O)c1C2=O)C[C@@](O)(C(C)=O)C[C@@H]3O[C@H]1C[C@H](N)[C@H](O)[C@H](C)O1` [daunorubicin] was run?
Answer: Its inhibition at 0.3 µM is 10.7%.

Question: And the inhibition at 0.3 µM ([4]; Mus musculus, read-out: % inhibition of proliferation)?
Answer: Its inhibition at 0.3 µM is 6.8%.

Question: Which results are given for `COc1cccc2c1C(=O)c1c(O)c3c(c(O)c1C2=O)C[C@@](O)(C(=O)CO)C[C@@H]3O[C@H]1C[C@H](N)[C@H](O)[C@H](C)O1` [doxorubicin]?
Answer: inhibition at 0.3 µM ([1]; Mus musculus, A20/2J; read-out: % inhibition of proliferation): 2.7%; inhibition at 0.3 µM ([4]; Mus musculus; read-out: % inhibition of proliferation): 9.1%

Question: With `Cc1oncc1C(=O)Nc1ccc(C(F)(F)F)cc1` [leflunomide] as the compound, how does the “times higher leflunomide concentrations tolerated by A20R than by A20.2J” value ([2]; A20R versus A20.2J) read?
Answer: Its value is 30-40 times.

Question: What about the ED50 ([2]; murine A20.2J cells resistant to high levels of leflunomide) of the same compound?
Answer: Its ED50 is 130 μ.

Question: And the EC50 ([2]; resistant subline A20R, read-out: ED50 (the source's name))?
Answer: Its EC50 is 130 µM.

Question: And the ED50 ([3]; murine A20.2J cells)?
Answer: Its ED50 is 4 μ.

Question: And the EC50 ([3]; original cell line A20.2J, read-out: ED50 (the source's name))?
Answer: The EC50 was 4 µM.

Question: Which results are given for Cyclosporin A?
Answer: % inhibition of A20.2J ([1]; 0.25 μM): 69.9%; % inhibition of A20R ([4]; 0.25 μM): 77.5%
